Test results: patent US9873880B2, “Engineering microorganisms” (DSM NUTRITIONAL PRODUCTS AG, priority 2013, dated 2018)

Tests used:
[1] = system: wild type strains ONC-T18; experiment: Transgene stability assay, growth on zeocin plates after six colony passages; assay type: cell-based, Thraustochytrium sp. ONC-T18; conditions: zeocin 200 μg/mL media
Description: Transgene stability is important for certain applications of genetic engineering in industrial microbial strain improvement programs where microorganisms are used in pharmaceutical or industrial processes, and where product quantity and quality are paramount. We therefore carried out transgene stability estimate assays of transformed ONC-T18 strains. As for the growth rate assays described in above, inocula of four strains of each transformation as well as their ancestor wild type strains were spotted on ONC-T18-GM0 agar plates in the absence of zeocin and incubated at 25° C. for seven days. (Each transformation had been performed using one of the five different plasmid constructs, each of which bears various zeocin-resistant gene expression cassettes driven by a combination of different promoters and terminators). Then, using the same method, strains were transferred on a new fresh ONC-T18-GM0 agar plate and incubated at 25° C. for 7 days; colony passages were carried out 6 times. Finally, strains were transferred back onto ONC-T18-GM0 agar plates either without or with zeocin at a concentration of 200 μg/mL media.

[2] = system: Thraustochytrium sp. ONC-T18; experiment: Effects of antibiotics on the growth of ONC-T18 on ONC-T18-GM0 agar plates; assay type: cell-based
Procedure: Thraustochytrium sp. ONC-T18 was grown on agar plates (20 g agar per liter ONC-T18-GM0). One loop of inoculum of ONC-T18 was inoculated into 50 mL of liquid ONC-T18-GM0, and the culture was incubated in a shaker incubator at 25° C. at 250 rpm for 36 hours. Half a milliliter of the culture was transferred into a 1.5 mL tube and vortexed at full speed for 30 seconds to break down cell clusters, then diluted in 50 mL sterilized water. One hundred microliters of the resulting solution was spread onto each ONC-T18-GM0 medium plate. Each plate contained one of various antibiotics at one of various concentrations. Plates were incubated at 25° C. and emergence and development of colonies were observed daily.

[3] = system: wild type strain of ONC-T18; experiment: Zeocin as mutagenic agent on ONC-T18 agar plates; assay type: cell-based, Thraustochytrium sp. ONC-T18
Procedure: The marine protist wild type strain of ONC-T18 was chosen as a model system to test if zeocin would be effective to induce mutagenesis in this strain. One full loop of the inocula of ONC-T18, growing in the agar plates containing ONC-T18-GM0 medium [5 g/L yeast extract, 5 g/L peptone, 10 g/L D(+)-glucose. 35 g/L artificial sea salt, 1.25 mg/L trace elements (5 g/L NaH2PO4.H2O, 3.15 g/L FeCl3.6H2O, 4.36 g/L Na2EDTA.2H2O, 0.6125 mg/L CuSO4.5H2O, 0.0597 g/L Na2MoO4.2H2O, 0.022 g/L ZnSO4.7H2O, 0.01 g/L CoCl2.6H2O, 0.18 g/L MnCl2.4H2O, 13 μg/L […], 2.7 mg/L NiSO4.6H2O, 1.84 mg/L Na3VO4 and 1.94 mg/L […]). 1.25 mg/L vitamins (1 mg/L vitamin B12, 1 mg/L biotin, 0.20 g/L thiamine HCl) and 20 g agar per liter], was inoculated into 50 mL liquid ONC-T18-GM0 medium, and incubated in a shaker incubator at 25° C. at 250 rpm for 36 hours. Half a milliliter of culture was transferred into a 1.5 mL tube and vortexed at full speed for 30 seconds, and then diluted in 50 mL sterilized water. One hundred microliters of the diluted inocula were respectively spread on the agar plates containing zeocin at various concentrations (0, 10, 30, 50, and 100 μg/mL). Plates were incubated at 25° C. incubator. The emergence and development of the colonies were observed daily. […] Under these conditions, zeocin was effective within the range of at least 10-200 μg/mL; higher concentrations may well also be effective. For example, concentrations in the range of 200-500 μg/mL or higher could work. […] Under the particular conditions utilized in the present Example, zeocin worked best at 50 μg/mL.

[4] = system: parental strain (the wild type strain) ONC-T18; experiment: Zeocin sensitivity of the parental (wild type) strain, spotted colonies; assay type: cell-based, Thraustochytrium sp. ONC-T18; conditions: ONC-T18-GM0 agar plates, 18 g/L sea salt, spotted cells
Procedure: (§1) A very small amount of inoculum of zeocin-resistant strains that had been transferred three times via colony passages on zeocin/ONC-T18-GM0 agar plates (as well as their parental strain or the wild type strain) was picked from colonies using a 10 μL pipette tip and re-suspended in 50 μL sterilized water in a 200 μL PCR tube. One μL of the cell suspension was spotted on ONC-T18-GM0 agar plates containing 18 g/L sea salt (15 g/L agar) and zeocin at a concentration ranging from 0 to 5000 μg/mL (Invitrogen, CA, USA). The diameters of the spotted colonies were measured on day 1, day 3, day 5, day 7, and day 8.

[5] = system: Thraustochytrium sp. ONC-T18; experiment: Effects of zeocin and salinity on colony numbers and colony diameters of ONC-T18; assay type: cell-based; conditions: for colony numbers: 10 days; for colony numbers / colony growth rates (diameter in mm): mean of two plates
Procedure: One hundred μL of ONC-T18 cell suspension diluted at 1:500 from a 2-day culture were spread onto ONC-T18-GM0 plates containing various concentrations of antibiotic zeocin and sea salt. Inoculated plates were incubated in a 25° C. incubator for 10 days. The numbers of the colonies on each plate were counted. […] In plates containing 8.5 g/L sea salt without zeocin, only one colony was observed. In plates containing 18 g/L sea salt without zeocin, colony numbers were similar to that of plates containing 35 g/L sea salt without zeocin. […] Therefore, for this work, 18 g/L sea salt was used to make ONC-T18-GM0 for selection of ONC-T18 transformants transformed with constructs bearing a zeocin-resistant gene expression cassette.

[6] = cited from earlier work
[7] = system: transformed strains bearing the zeocin-resistance gene (from S. hidustanus) expression cassette; experiment: Zeocin sensitivity of transformed strains, spotted colonies; assay type: cell-based, Thraustochytrium sp. ONC-T18; conditions: 18 g/L sea salt
Procedure: as §1

[8] = agar plates, ONC-T18-GM0, 35 g/L artificial sea salt

Compound: Cc1c(N)nc([C@H](CC(N)=O)NC[C@H](N)C(N)=O)nc1C(=O)N[C@H](C(=O)N[C@H](C)[C@@H](O)[C@H](C)C(=O)N[C@H](C(=O)NCCC1=N[C@@H](c2nc(C(=O)NCCCCN=C(N)N)cs2)CS1)[C@@H](C)O)[C@@H](O[C@@H]1O[C@@H](CO)[C@@H](O)[C@H](O)[C@@H]1O[C@H]1O[C@H](CO)[C@@H](O)[C@H](OC(N)=O)[C@@H]1O)c1cnc[nH]1 [Zeocin, zeocin]
- growth of wild type strains [1]: none of the wild type strains were able to grow
- effect on growth of ONC-T18 (in words) [2]: significantly inhibited the growth
- concentration at which zeocin worked best as mutagen [3, 8]: 50 µg/mL
- concentration range in which zeocin was effective as mutagen [3, 8]: 10 to 200 µg/mL
- colonies seen per plate ([3]; zeocin 50 μg/mL, six days post inoculation): Only a few of colonies
- sensitivity of ONC-T18 cells to zeocin ([3]; zeocin 100 μg/mL): highly sensitive
- zeocin concentration on which the wild type strain grew [4]: ≤ 30 µg/mL
- zeocin concentration that completely inhibited growth of ONC-T18 ([5]; ONC-T18-GM0 agar plates containing 18 g/L sea salt): 30 µg/mL
- zeocin concentration needed for complete inhibition of ONC-T18 ([5]; ONC-T18-GM0 agar plates containing 35 g/L sea salt): 100 µg/mL
- colony numbers ([5]; salt 5 g/L, zeocin 10 μg/mL): 0
- colony growth rates (diameter in mm) ([5]; salt 5 g/L, zeocin 10 μg/mL): 0 mm
- colony numbers ([5]; salt 5 g/L, zeocin 30 μg/mL): 0
- colony growth rates (diameter in mm) ([5]; salt 5 g/L, zeocin 30 μg/mL): 0 mm
- colony numbers ([5]; salt 5 g/L, zeocin 50 μg/mL): 0
- colony growth rates (diameter in mm) ([5]; salt 5 g/L, zeocin 50 μg/mL): 0 mm
- colony numbers ([5]; salt 5 g/L, zeocin 100 μg/mL): 0
- colony growth rates (diameter in mm) ([5]; salt 5 g/L, zeocin 100 μg/mL): 0 mm
- colony numbers ([5]; salt 8.5 g/L, zeocin 10 μg/mL): 0
- colony growth rates (diameter in mm) ([5]; salt 8.5 g/L, zeocin 10 μg/mL): 0 mm
- colony numbers ([5]; salt 8.5 g/L, zeocin 30 μg/mL): 0
- colony growth rates (diameter in mm) ([5]; salt 8.5 g/L, zeocin 30 μg/mL): 0 mm
- colony numbers ([5]; salt 8.5 g/L, zeocin 50 μg/mL): 0
- colony growth rates (diameter in mm) ([5]; salt 8.5 g/L, zeocin 50 μg/mL): 0 mm
- colony numbers ([5]; salt 8.5 g/L, zeocin 100 μg/mL): 0
- colony growth rates (diameter in mm) ([5]; salt 8.5 g/L, zeocin 100 μg/mL): 0 mm
- colony numbers ([5]; salt 18 g/L, zeocin 10 μg/mL): 11
- colony growth rates (diameter in mm) ([5]; salt 18 g/L, zeocin 10 μg/mL): 4.1 mm
- colony numbers ([5]; salt 18 g/L, zeocin 30 μg/mL): 0
- colony growth rates (diameter in mm) ([5]; salt 18 g/L, zeocin 30 μg/mL): 0 mm
- colony numbers ([5]; salt 18 g/L, zeocin 50 μg/mL): 0
- colony growth rates (diameter in mm) ([5]; salt 18 g/L, zeocin 50 μg/mL): 0 mm
- colony numbers ([5]; salt 18 g/L, zeocin 100 μg/mL): 0
- colony growth rates (diameter in mm) ([5]; salt 18 g/L, zeocin 100 μg/mL): 0 mm
- colony numbers ([5]; salt 35 g/L, zeocin 10 μg/mL): 22.5
- colony growth rates (diameter in mm) ([5]; salt 35 g/L, zeocin 10 μg/mL): 4.1 mm
- colony numbers ([5]; salt 35 g/L, zeocin 30 μg/mL): 11
- colony growth rates (diameter in mm) ([5]; salt 35 g/L, zeocin 30 μg/mL): 1.9 mm
- colony numbers ([5]; salt 35 g/L, zeocin 50 μg/mL): 5
- colony growth rates (diameter in mm) ([5]; salt 35 g/L, zeocin 50 μg/mL): 0.6 mm
- colony numbers ([5]; salt 35 g/L, zeocin 100 μg/mL): 0
- colony growth rates (diameter in mm) ([5]; salt 35 g/L, zeocin 100 μg/mL): 0 mm
- stability at high salt concentrations ([6]; Invitrogen): unstable
- water solubility ([6]; InvivoGen): water soluble
- growth of transformed strains ([7]; zeocin 5000 μg/mL): most strains grew remarkably slower
- growth of transformed strains ([7]; zeocin 30 to 1000 μg/mL): grew well
